Assay results as given in patent publication US20240349724A1, “ANTIMICROBIAL COMPOSITIONS EFFECTIVE AGAINST BACTERIA AND FUNGUS” (TerMir Inc., priority 2017, published 2024).
≈ marks a conversion by molar mass, not a printed value. Where “and” joins values, the source holds several entries; their conditions need not be identical. Identical values can stand only once. Like-named read-outs stand apart in the source and are kept apart here.

Experiments:
[1] = test system: Stenotrophomonos maltophilia ATCC 13637; assay: CLSI M07-A10 microdilution / checkerboard MIC; type: cell-based, Stenotrophomonas maltophilia; details: for Reduced PhlB: fraction of PhlB dosage
Description: (§1) Tests are conducted according to the 2015 Clinical and Laboratory Standards Institute Method M07-A10: Methods for dilution antimicrobial susceptibility tests for bacteria that grow aerobically. Sterile 96-well microplates are prepared with Meuller Hinton Broth containing varying amounts of test compounds in each well (100 μL per well). Then according to the CLSI M07-A10 microdilution assay, a row with a 2-fold serial dilution series with 10 different concentrations of the test compound are prepared along with three replicate rows for each combination of test organism and test compound. According to the CLSI M07-A10 microdilution combination (checkerboard) assay, an 8×8 well matrix containing two 2-fold serial dilution series of two test compounds arranged perpendicular to one another so that each concentration of compound 1 is prepared once with each combination of compound 2. One column with a 2-fold serial dilution series with 8 different concentrations of test compound 1 is prepared along with one column with a 2-fold serial dilution series with 8 different concentrations of test compound 2. One microplate for each combination of test organism and pair of test compounds is prepared in addition to a cell suspension of each test microorganism equivalent to a 0.5 McFarland turbidity standard using fresh isolated colonies grown on Meuller Hinton Agar. Each cell suspension is diluted in a 1:20 ratio in Meuller Hinton Broth and the microplate is inoculated by adding add 10 μL to each well. Microplates then incubate according to CLSI M07-A10.
(§2) Microplates are read and data was interpreted according to the following procedure: The minimum inhibitory concentration (MIC) is the minimum concentration of the test compound needed to cease growth of the organism, it encompasses microbe death as well as microbe loss of the ability to divide and grow. Supplemental light was used during the 24-hour incubation period. Light intensity ranged from 1259 and 4203 lux.

[2] = test system: Bacillus subtilis ATCC 15841; assay: CLSI M07-A10 microdilution / checkerboard MIC; type: cell-based; details: for Reduced PhlB: fraction of PhlB dosage
Description: as §1, §2

[3] = test system: Rhizobium radiobacter ATCC 70069; assay: CLSI M07-A10 microdilution / checkerboard MIC; type: cell-based; details: for MIC: Agrobacterium radiobacter, ATCC70069, 24 h, read-out: MIC at 24 hours in Light, Fluorescein, R. radiobacter; for Reduced PhlB: fraction of PhlB dosage
Description: as §1, §2

[4] = test system: Candida albicans ATCC 10231; assay: Yeast microplate MIC (visible growth); type: cell-based; details: for Reduced PhlB: fraction of PhlB dosage
Description: Yeast: Culture Candida on Sabouraud Dextrose Agar (SDA) at 35±1° C. for 24-48 hours until colonies are approximately 2-3 mm in diameter. Suspend ˜5 colonies in 5 mL of sterile 0.8-0.9% saline solution. Vortex for 15 seconds. Adjust the cell density to that of a 0.5 McFarland Equivalence Turbidity Standard. Prepare adjusted inoculum: Dilute the cell suspension 1:2000 in RPMI 1640. Inoculate microplates by adding 100 μL to each applicable well.
(§3) During the Candida adjusted inoculum preparation, saline cell suspensions with optical densities equal to that of a 0.5 McFarland Equivalence Turbidity Standard were diluted 1:1000 in RPMI 1640, rather than 1:2000 as instructed in CLSI M27-A3. Alternaria was cultured at 30±1° C. for 7 days or until good sporulation was obtained.
(§4) Data Analysis/Reporting: Read microplates for visible growth (turbidity). Use the minimum inhibitory concentration (MIC).

[5] = test system: Aspergillus niger ATCC 6275; assay: Mold microplate MIC (visible growth); type: cell-based; details: for Reduced PhlB: fraction of PhlB dosage
Description: (§5) Mold: Culture Curvularia and Aspergillus on SDA at 35±1° C. for 7 days or until good sporulation is obtained. Culture Alternaria at 30±1° C. for 7 days or until good sporulation is obtained. Harvest sporulating colonies with 0.8-0.9% saline solution and transfer to a fresh tube. Allow heavy particles to settle for 5 minutes and transfer the upper homogeneous suspension to a sterile tube and mix via vortex for 15 seconds. Read and adjust the optical density to OD (530 nm): • Alternaria: 0.25-0.30 • Aspergillus: 0.09-0.13 • Curvularia: 0.25-0.30
as §4

[6] = test system: Ralstonia insidiosa ATCC 49129; assay: microbe, parasite or virus in culture; type: cell-based; details: for Reduced PhlB: fraction of PhlB dosage
Description: as §1, §2

[7] = test system: Altemaria alternata ATCC 66981; assay: Mold microplate MIC (visible growth); type: cell-based, Alternaria alternata; details: for Reduced PhlB: fraction of PhlB dosage
Description: as §5, §3, §4

[8] = test system: Curvularia lunata ATCC 12017; assay: Mold microplate MIC (visible growth); type: cell-based; details: for Reduced PhlB: fraction of PhlB dosage
Description: as §5, §4

Gram(+) bacteria = details: background statement; cited from earlier work
Gram(−) bacteria = details: PhlB on its own; background statement; cited from earlier work
[9] = S. maltophilia, alone ('Trial' line)
[10] = B. subtilis, alone ('Trial' line)
[11] = R. radiobacter, alone ('Trial' line)
[12] = C. albicans, alone ('Trial' line)
[13] = R. insidiosa, alone ('Trial' line)
[14] = A. alternata, alone ('Trial' line)

N.N.O=S(=O)(O)O [Ammonium sulfate, ammonium sulfate]
MIC at 24 hours in Light, Ammonium sulfate [1, 9]: 375000 µM | MIC at 24 hours in Light, Ammonium sulfate [2, 10]: 93800 µM | MIC at 24 hours in Light, Ammonium sulfate [3, 11]: 93800 µM | MIC at 24 hours in Light, Ammonium sulfate [4, 12]: 750000 µM | MIC at 24 hours in Light, Ammonium sulfate ([5]; A. niger, alone ('Trial' line)): 93749 µM | MIC at 24 hours in Light, Ammonium sulfate [6, 13]: 750000 µM | MIC at 24 hours in Light, Ammonium sulfate [7, 14]: 46874 µM

O=C1OC2(c3ccc(O)cc3Oc3cc(O)ccc32)c2ccccc21 [Fluorescein, 3′,6′-dihydroxyspiro[2-benzofuran-3,9′-xanthene]-1-one]
MIC ([1]; Stenotrophomonas maltophilia, ATCC13637, 24 h, read-out: MIC at 24 hours in Light, Fluorescein, S. maltophilia, alone ('Trial' line)): 7.8 µM | MIC ([2]; Bacillus subtilis, ATCC15841, 24 h, read-out: MIC at 24 hours in Light, Fluorescein, B. subtilis, alone ('Trial' line)): 62.5 µM | MIC ([3]; alone ('Trial' line)): 0.98 µM | MIC ([3]; combined with PHL B (c2 of same line)): 0.49 µM | MIC ([4]; Candida albicans, ATCC10231, 24 h, read-out: MIC at 24 hours in Light, Fluorescein, C. albicans, alone ('Trial' line)): 2000 µM (≈ 665 µg/mL) | MIC ([5]; Aspergillus niger, ATCC6275, 24 h, read-out: MIC at 24 hours in Light, Fluorescein, A. niger, alone ('Trial' line)): 1.86 µM (≈ 0.618 µg/mL) | MIC ([8]; Curvularia lunata, ATCC12017, 24 h, read-out: MIC at 24 hours in Light, Fluorescein, C. lunata, alone ('Trial' line)): 15.7 µM (≈ 5.21 µg/mL) | MIC ([6]; Ralstonia insidiosa, ATCC49129, 24 h, read-out: MIC at 24 hours in Light, Fluorescein, R. insidiosa, alone ('Trial' line)): 7.8 µM | MIC ([7]; Alternaria alternata, ATCC66981, 24 h, read-out: MIC at 24 hours in Light, Fluorescein, A. alternata, alone ('Trial' line)): 15.7 µM (≈ 5.21 µg/mL)

O=C1OC2(c3cc(Br)c([O-])c(Br)c3Oc3c2cc(Br)c([O-])c3Br)c2c(Cl)c(Cl)c(Cl)c(Cl)c21.[Na+].[Na+] [PHL B, disodium salt of 2′,4′,5′,7′-tetrabromo-4,5,6,7-tetrachlorofluorescein]
control of Gram(+) bacteria (Gram(+) bacteria): control Gram(+) bacteria at millimolar to micromolar concentrations | Reduced PhlB ([1]; S. maltophilia, with Fluorescein): ⅛ and ¼ and ½ and 1/16 | Reduced PhlB ([1]; S. maltophilia, with NaTetraBorate): ⅛ and ¼ and ½ | MIC at 24 hours in Light, PHL B [2, 10]: 0.98 µM and 0.49 µM | Reduced PhlB ([2]; B. subtilis, with Fluorescein): ⅛ and ¼ and ½ and 1/16 | Reduced PhlB ([2]; B. subtilis, with NaTetraBorate): 3/98 and 3/49 and ⅛ and ¼ and ½ | MIC at 24 hours in Light, PHL B [3, 11]: 0.12 µM and 0.24 µM | Reduced PhlB ([3]; R. radiobacter, with Fluorescein): ¼ and ½ and ⅛ | Reduced PhlB ([3]; R. radiobacter, with NaTetraBorate): ¼ and ½ | MIC at 24 hours in Light, PHL B [4, 12]: 125 µM and 125.36 µM and 62.68 µM | Reduced PhlB ([4]; C. albicans, with Ammonium sulfate): 1/125 and 1/64 and 1/32 and 1/16 and ⅛ and ¼ and ½ | Reduced PhlB ([4]; C. albicans, with Fluorescein): 1/64 and 1/32 and 1/16 and ⅛ and ¼ and ½ | Reduced PhlB ([4]; C. albicans, with NaTetraBorate): 1/128 and 1/64 and 1/32 and 1/16 and ⅛ and ¼ and ½ | MIC at 24 hours in Light, PHL B ([5]; A. niger, alone ('Trial' line)): 1.93 µM and 3.62 µM | Reduced PhlB ([5]; A. niger, with Ammonium sulfate): ¼ and ½ | Reduced PhlB ([5]; A. niger, with Fluorescein): ½ | Reduced PhlB ([5]; A. niger, with NaTetraBorate): ½ | Reduced PhlB ([8]; C. lunata, with Ammonium sulfate): ⅛ and ¼ and ½ | Reduced PhlB ([8]; C. lunata, with Fluorescein): ¼ and ½ | Reduced PhlB ([8]; C. lunata, with NaTetraBorate): ¼ and ½ | Reduced PhlB ([6]; R. insidiosa, with Fluorescein): ⅛ and ¼ and ½ and 1/16 | Reduced PhlB ([6]; R. insidiosa, with NaTetraBorate): ⅛ and ¼ and ½ | MIC at 24 hours in Light, PHL B [7, 14]: 1.93 µM and 3.62 µM | Reduced PhlB ([7]; A. alternata, with Ammonium sulfate): ¼ and ½ | Reduced PhlB ([7]; A. alternata, with Fluorescein): ¼ | Reduced PhlB ([7]; A. alternata, with NaTetraBorate): ½ | control of Gram(−) bacteria (Gram(−) bacteria): does not control Gram(−) bacteria

[Na+].[Na+].[O-]B1OB2OB([O-])OB(O1)O2 [NaTetraBorate, sodium tetraborate]
MIC at 24 hours in Light, NaTetraBorate [1, 9]: 5000 µM | MIC at 24 hours in Light, NaTetraBorate [2, 10]: 10000 µM | MIC at 24 hours in Light, NaTetraBorate [3, 11]: 2500 µM | MIC at 24 hours in Light, NaTetraBorate [4, 12]: 9999 µM | MIC at 24 hours in Light, NaTetraBorate ([5]; A. niger, alone ('Trial' line)): 2673 µM | MIC at 24 hours in Light, NaTetraBorate ([8]; C. lunata, alone ('Trial' line)): 4999.50 µM | MIC at 24 hours in Light, NaTetraBorate [6, 13]: 10000 µM | MIC at 24 hours in Light, NaTetraBorate [7, 14]: 625160 µM
